Assays:
HepG2 = test: In vitro antiviral activity against HBV in Hep G2 cells; assay type: functional, cell-based; settings: Homo sapiens
HeLa = test: In vitro antiviral activity against HIV in HeLa CD4 cells; assay type: functional, cell-based; settings: Homo sapiens
[1] = In vitro cytotoxic activity against Vero cells; assay type: cell-based; settings: chlorocebus sabaeus, read-out: CCID50

Work on Nc1ccn([C@@H]2CC[C@H](CO)O2)c(=O)n1 yielded an IC50 (HepG2) of over 100 µM, an IC50 (HeLa) of over 50 µM and a CC50 [1] of over 500 µM.
With Nc1nc(=O)n([C@H]2C=C[C@@H](CO)S2)cc1F the IC50 (HepG2) was over 50 µM, the IC50 (HeLa) was under 50 µM and the CC50 [1] was over 500 µM.
Work on Nc1ccn([C@@H]2C=C[C@H](CO)S2)c(=O)n1 yielded an IC50 (HepG2) of 0.8 µM, an IC50 (HeLa) of 0.8 µM and a CC50 [1] of over 500 µM.
Work on Nc1nc(=O)n([C@@H]2CC[C@H](CO)O2)cc1F yielded an IC50 (HepG2) of over 100 µM, an IC50 (HeLa) of over 50 µM and a CC50 [1] of over 500 µM.
With Nc1nc(=O)n([C@@H]2C=C[C@H](CO)S2)cc1F the IC50 (HepG2) was 3.5 µM, the IC50 (HeLa) was 0.4 µM and the CC50 [1] was over 500 µM.
With Nc1ccn([C@H]2C=C[C@@H](CO)S2)c(=O)n1 the IC50 (HepG2) was 15 µM, the IC50 (HeLa) was 23 µM and the CC50 [1] was over 500 µM.
In the case of Nc1ccn([C@H]2CC[C@@H](CO)O2)c(=O)n1 [ZALCITABINE], the IC50 (HepG2) is reported as over 100 µM, the IC50 (HeLa) is reported as 38 µM and the CC50 [1] is reported as over 500 µM.
